Calls of active or inactive are those of the source. No cut-off for these calls is given here.
Assays:
[1] = molecular target: T1, Replicase polyprotein 1ab (Severe acute respiratory syndrome coronavirus 2, UniProt P0DTD1); experiment: Inhibition of SARS-CoV-2 main protease using Mca-AVLQSGFRK(Dnp)K as substrate preincubated with enzyme for 10 mins followed by substrate addition and measured every 30 secs for 10 mins by fluorescence based analysis
[2] = molecular target: Replicase polyprotein 1ab (Severe acute respiratory syndrome coronavirus 2) (UniProt P0DTD1); experiment: Inhibition of SARS-CoV-2 main protease using Mca-AVLQSGFRK(Dnp)K as substrate at 40 uM preincubated with enzyme for 10 mins followed by substrate addition and measured every 30 secs for 10 mins by fluorescence based analysis; details: time 20.0 min
[3] = molecular target: T1, Replicase polyprotein 1ab; experiment: Inhibition of SARS-CoV-2 RdRp
[4] = molecular target: Replicase polyprotein 1ab (Severe acute respiratory syndrome coronavirus 2) (UniProt P0DTD1); experiment: Irreversible inhibition of SARS-CoV-2 main protease by fast dilution experiment based analysis

## CC(C)(C)c1ccc(NC(=O)Cn2sc3cc(F)ccc3c2=O)cc1
[1]
  IC50: 310 nM
[2]
  inhibition: 99.9%

## O=C(Cn1sc2cc(F)ccc2c1=O)NCc1ccccc1
[1]
  IC50: 230 nM
[2]
  inhibition: 104%

## COc1ccc(NC(=O)Cn2sc3cc(F)ccc3c2=O)cc1
[1]
  IC50: 300 nM
[2]
  inhibition: 99.3%

## O=C(Cn1[nH]c2cc(F)ccc2c1=O)Nc1ccccc1
[2]
  inhibition: 26.3%

## Nc1ccc2sn(CC(=O)Nc3ccccc3)c(=O)c2c1
[1]
  IC50: 416 nM
[2]
  inhibition: 99.8%

## COc1cccc2c(=O)n(CC(=O)Nc3ccccc3)sc12
[2]
  inhibition: -6.8%

## O=C(Nc1ccccc1)n1sc2cc(F)ccc2c1=O
[1]
  IC50: 680 nM
[2]
  inhibition: 102%
[3]
  IC50: 15300 nM

## O=C(Cn1sc2cc(F)ccc2c1=O)Nc1ccc(Cl)cc1
[1]
  IC50: 150 nM
[2]
  inhibition: 95.7%

## Nc1ccc2c(=O)n(CC(=O)Nc3ccccc3)sc2c1
[1]
  IC50: 443 nM
[2]
  inhibition: 99.7%

## O=c1[nH]sc2cc(F)ccc12
[1]
  IC50: 2290 nM
[2]
  inhibition: 106%

## COc1cccc2sn(CC(=O)Nc3ccccc3)c(=O)c12
[1]
  IC50: 334 nM
[2]
  inhibition: 99.6%

## O=C(Cn1sc2cc(F)ccc2c1=O)Nc1ccccc1
[1]
  IC50: 190 nM
[2]
  inhibition: 102%
[3]
  IC50: 6400 nM

## CC(C)(C)OC(=O)Cn1sc2cc(F)ccc2c1=O
[1]
  IC50: 220 nM
[2]
  inhibition: 104%

## O=C(Cn1oc2cc(F)ccc2c1=O)Nc1ccccc1
[2]
  inhibition: 7%

## COc1ccccc1NC(=O)Cn1sc2cc(F)ccc2c1=O
[1]
  IC50: 180 nM
[2]
  inhibition: 99.2%

## O=C(Cn1sc2cc(F)ccc2c1=O)Nc1ccccc1Cl
[1]
  IC50: 190 nM
[2]
  inhibition: 94%

## Nc1cccc2sn(CC(=O)Nc3ccccc3)c(=O)c12
[1]
  IC50: 1770 nM
[2]
  inhibition: 99.4%

## O=C(Cn1sc2cc(F)ccc2c1=O)Nc1ccccc1C(F)(F)F
[1]
  IC50: 335 nM
[2]
  inhibition: 105%

## O=C(Cn1sc2cc(F)ccc2c1=O)NCCc1ccccc1
[1]
  IC50: 388 nM
[2]
  inhibition: 100%

## COc1cccc(NC(=O)Cn2sc3cc(F)ccc3c2=O)c1
[1]
  IC50: 150 nM
[2]
  inhibition: 101%

## O=C(Cn1sc2cccc(F)c2c1=O)Nc1ccccc1
[1]
  IC50: 117 nM
[2]
  inhibition: 99.5%
[4]
  inhibition: Active

## O=C(Cn1sc2ccc(C(F)(F)F)cc2c1=O)Nc1ccccc1
[1]
  IC50: 393 nM
[2]
  inhibition: 99.7%

## O=C(Cn1sc2c(C(F)(F)F)cccc2c1=O)Nc1ccccc1
[2]
  inhibition: -7.6%

## O=C(Cn1sc2cc(F)ccc2c1=O)Nc1ccc(C(F)(F)F)cc1
[1]
  IC50: 210 nM
[2]
  inhibition: 100%

## O=C(Cn1sc2ccc(F)cc2c1=O)Nc1ccccc1
[1]
  IC50: 287 nM
[2]
  inhibition: 99.7%

## COc1ccc2c(=O)n(CC(=O)Nc3ccccc3)sc2c1
[1]
  IC50: 287 nM
[2]
  inhibition: 99.7%

## O=C(Cn1sc2cc(C(F)(F)F)ccc2c1=O)Nc1ccccc1
[1]
  IC50: 524 nM
[2]
  inhibition: 100%

## O=C(Cn1sc2cc(F)ccc2c1=O)NC1CCCC1
[1]
  IC50: 400 nM
[2]
  inhibition: 95.5%

## O=C(Cn1sc2cc(F)ccc2c1=O)Nc1cccc(Cl)c1
[1]
  IC50: 140 nM
[2]
  inhibition: 95.5%

## O=C(O)Cn1sc2cc(F)ccc2c1=O
[1]
  IC50: 1570 nM
[2]
  inhibition: 98.4%

## CCNC(=O)Cn1sc2cc(F)ccc2c1=O
[1]
  IC50: 380 nM
[2]
  inhibition: 102%

## COc1cc(NC(=O)Cn2sc3cc(F)ccc3c2=O)cc(OC)c1
[1]
  IC50: 120 nM
[2]
  inhibition: 96.7%

## O=C(Cn1sc2ccccc2c1=O)Nc1ccccc1
[1]
  IC50: 165 nM
[2]
  inhibition: 99.7%

## O=C(CN1C(=O)c2ccc(F)cc2S1(=O)=O)Nc1ccccc1
[2]
  inhibition: 18.3%

## O=c1c2ccc(F)cc2sn1CCCc1ccccc1
[1]
  IC50: 540 nM
[2]
  inhibition: 102%

## COc1ccc2sn(CC(=O)Nc3ccccc3)c(=O)c2c1
[1]
  IC50: 153 nM
[2]
  inhibition: 99.7%

## O=C(Cn1sc2cc(F)ccc2c1=O)Nc1cccc(C(F)(F)F)c1
[1]
  IC50: 250 nM
[2]
  inhibition: 98.9%

## O=C(Cn1sc2cc(F)ccc2c1=O)Nc1cc(Cl)cc(Cl)c1
[1]
  IC50: 190 nM
[2]
  inhibition: 108%

## CC(=O)NCn1sc2cc(F)ccc2c1=O
[1]
  IC50: 253 nM
[2]
  inhibition: 102%

## O=C(Cn1c(=O)c2ccc(F)cc2[s+]1[O-])Nc1ccccc1 (stereo unspecified)
[2]
  inhibition: 23.5%

## O=C(Cn1sc2cc(F)ccc2c1=O)NC1CCCCC1
[1]
  IC50: 160 nM
[2]
  inhibition: 97.7%
[3]
  IC50: 7900 nM

## O=C(Cn1sc2c(F)cccc2c1=O)Nc1ccccc1
[1]
  IC50: 328 nM
[2]
  inhibition: 99.5%

## O=C(Cn1sc2cccc(C(F)(F)F)c2c1=O)Nc1ccccc1
[1]
  IC50: 224 nM
[2]
  inhibition: 99.7%

## Nc1cccc2c(=O)n(CC(=O)Nc3ccccc3)sc12
[1]
  IC50: 11000 nM
[2]
  inhibition: 58.8%

From ChEMBL document CHEMBL5143559, “Discovery of highly potent SARS-CoV-2 Mpro inhibitors based on benzoisothiazolone scaffold” (Bioorg Med Chem Lett, 2022)
